Test results as given in PubChem BioAssay (NCI).
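A five-concentration, 48-hour dose response in 96-well plates underlies each endpoint, interpolated linearly between surrounding concentrations. The concentration for full growth arrest is given as TGI.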

Columns and labels:
Assay in all cases: NCI tumour cell line growth inhibition, 48 h
[1] = test system: 786-0 renal
[2] = test system: A498 renal
[3] = test system: ACHN renal
[4] = test system: BT-549 breast
[5] = test system: CAKI-1 renal
[6] = test system: CCRF-CEM leukemia
[7] = test system: COLO 205 colon
[8] = test system: DU-145 prostate
[9] = test system: EKVX NSCLC
[10] = test system: HCT-116 colon
[11] = test system: HCT-15 colon
[12] = test system: HL-60(TB) leukemia
[13] = test system: HOP-62 NSCLC
[14] = test system: HS 578T breast
[15] = test system: HT29 colon
[16] = test system: IGROV1 ovarian
[17] = test system: K-562 leukemia
[18] = test system: KM12 colon
[19] = test system: LOX IMVI melanoma
[20] = test system: M14 melanoma
[21] = test system: MALME-3M melanoma
[22] = test system: MCF7 breast
[23] = test system: MDA-MB-231 breast
[24] = test system: MDA-MB-435
[25] = test system: MDA-N
[26] = test system: MOLT-4 leukemia
[27] = test system: NCI-H226 lung
[28] = test system: NCI-H23 lung
[29] = test system: NCI-H460 lung
[30] = test system: NCI/ADR-RES ovarian
[31] = test system: OVCAR-3 ovarian
[32] = test system: OVCAR-5 ovarian
[33] = test system: OVCAR-8 ovarian
[34] = test system: PC-3 prostate
[35] = test system: RPMI-8226 leukemia
[36] = test system: RXF 393 renal
[37] = test system: SF-268 CNS
[38] = test system: SF-295 CNS
[39] = test system: SF-539 CNS
[40] = test system: SK-MEL-2 melanoma
[41] = test system: SK-MEL-5 melanoma
[42] = test system: SK-OV-3 ovarian
[43] = test system: SN12C renal
[44] = test system: SNB-19 CNS
[45] = test system: SNB-75 CNS
[46] = test system: SR leukemia
[47] = test system: SW-620 colon
[48] = test system: T-47D breast
[49] = test system: TK-10 renal
[50] = test system: U251 CNS
[51] = test system: UACC-257 melanoma
[52] = test system: UACC-62 melanoma
[53] = test system: UO-31 renal
[54] = test system: A549 NSCLC
[55] = test system: HCC-2998 colon
[56] = test system: HOP-92 NSCLC
[57] = test system: NCI-H522 lung
[58] = test system: OVCAR-4 ovarian
[59] = test system: SK-MEL-28 melanoma

## COC(=O)c1cc2c3c(c(C(C)=O)c(OC)c2[nH]1)NCC3
[1]
  TGI: > 50 µM
[2]
  TGI: > 50 µM
[3]
  TGI: > 50 µM
[4]
  TGI: > 50 µM
[5]
  TGI: > 50 µM
[6]
  TGI: > 50 µM
[7]
  TGI: > 50 µM
[8]
  TGI: > 50 µM
[9]
  TGI: > 50 µM
[10]
  TGI: > 50 µM
[11]
  TGI: > 50 µM
[12]
  TGI: > 50 µM
[13]
  TGI: > 50 µM
[14]
  TGI: > 50 µM
[15]
  TGI: > 50 µM
[16]
  TGI: > 50 µM
[17]
  TGI: > 50 µM
[18]
  TGI: > 50 µM
[19]
  TGI: > 50 µM
[20]
  TGI: > 50 µM
[21]
  TGI: > 50 µM
[22]
  TGI: > 50 µM
[23]
  TGI: > 50 µM
[24]
  TGI: > 50 µM
[25]
  TGI: > 50 µM
[26]
  TGI: > 50 µM
[27]
  TGI: > 50 µM
[28]
  TGI: > 50 µM
[29]
  TGI: > 50 µM
[30]
  TGI: > 50 µM
[31]
  TGI: > 50 µM
[32]
  TGI: > 50 µM
[33]
  TGI: > 50 µM
[34]
  TGI: > 50 µM
[35]
  TGI: > 50 µM
[36]
  TGI: > 50 µM
[37]
  TGI: > 50 µM
[38]
  TGI: > 50 µM
[39]
  TGI: > 50 µM
[40]
  TGI: > 50 µM
[41]
  TGI: > 50 µM
[42]
  TGI: > 50 µM
[43]
  TGI: > 50 µM
[44]
  TGI: > 50 µM
[45]
  TGI: > 50 µM
[46]
  TGI: > 50 µM
[47]
  TGI: > 50 µM
[48]
  TGI: > 50 µM
[49]
  TGI: > 50 µM
[50]
  TGI: > 50 µM
[51]
  TGI: > 50 µM
[52]
  TGI: > 50 µM
[53]
  TGI: > 50 µM

## COc1cc(/C=C2\C[C@H]3[C@@H]4CC=C5C[C@@H](N6CCCC6)CC[C@]5(C)[C@H]4CC[C@]3(C)[C@H]2OC(C)=O)cc(OC)c1OC
[1]
  TGI: 23.3 µM
[2]
  TGI: 28.7 µM
[54]
  TGI: 32 µM
[3]
  TGI: 32.9 µM
[4]
  TGI: 28.1 µM
[5]
  TGI: 32.6 µM
[6]
  TGI: > 100 µM
[7]
  TGI: 25.6 µM
[8]
  TGI: 32.9 µM
[9]
  TGI: 27.3 µM
[55]
  TGI: 10.4 µM
[10]
  TGI: 30.5 µM
[11]
  TGI: 25.1 µM
[12]
  TGI: 65.7 µM
[13]
  TGI: 29.3 µM
[56]
  TGI: 22.3 µM
[14]
  TGI: 35.1 µM
[15]
  TGI: 21.6 µM
[16]
  TGI: 29.9 µM
[18]
  TGI: 31.2 µM
[20]
  TGI: 31.9 µM
[21]
  TGI: 38.1 µM
[22]
  TGI: 29.8 µM
[23]
  TGI: 29.8 µM
[24]
  TGI: 26.8 µM
[25]
  TGI: 23.3 µM
[26]
  TGI: 22.5 µM
[27]
  TGI: 48.3 µM
[28]
  TGI: 28.5 µM
[57]
  TGI: 30.4 µM
[30]
  TGI: 30.9 µM
[31]
  TGI: 29.8 µM
[58]
  TGI: 34.8 µM
[32]
  TGI: 29.7 µM
[33]
  TGI: 28.7 µM
[34]
  TGI: 27.2 µM
[35]
  TGI: 29.6 µM
[36]
  TGI: 27 µM
[37]
  TGI: 27.7 µM
[38]
  TGI: 26.5 µM
[40]
  TGI: 31.6 µM
[59]
  TGI: 34.1 µM
[41]
  TGI: 28.4 µM
[42]
  TGI: 29.1 µM
[43]
  TGI: 27.8 µM
[44]
  TGI: 34.2 µM
[45]
  TGI: 29.4 µM
[47]
  TGI: 34.7 µM
[48]
  TGI: 44.8 µM
[49]
  TGI: 34.8 µM
[50]
  TGI: 29.2 µM
[51]
  TGI: 33.8 µM
[52]
  TGI: 31.7 µM
[53]
  TGI: 30 µM

## Cc1nc(C(N)=S)sc1C(=O)CC(=O)C(=O)Nc1cccc(Cl)c1C
[1]
  TGI: > 100 µM
[2]
  TGI: > 100 µM
[54]
  TGI: > 100 µM
[3]
  TGI: > 100 µM
[4]
  TGI: > 100 µM
[5]
  TGI: > 100 µM
[6]
  TGI: > 100 µM
[9]
  TGI: > 100 µM
[55]
  TGI: > 100 µM
[10]
  TGI: > 100 µM
[11]
  TGI: > 100 µM
[12]
  TGI: > 100 µM
[13]
  TGI: > 100 µM
[56]
  TGI: > 100 µM
[14]
  TGI: > 100 µM
[15]
  TGI: > 100 µM
[16]
  TGI: > 100 µM
[17]
  TGI: > 100 µM
[18]
  TGI: > 100 µM
[19]
  TGI: > 100 µM
[20]
  TGI: > 100 µM
[21]
  TGI: > 100 µM
[22]
  TGI: > 100 µM
[23]
  TGI: > 100 µM
[24]
  TGI: > 100 µM
[25]
  TGI: > 100 µM
[26]
  TGI: > 100 µM
[27]
  TGI: > 100 µM
[28]
  TGI: > 100 µM
[29]
  TGI: > 100 µM
[57]
  TGI: > 100 µM
[30]
  TGI: > 100 µM
[31]
  TGI: > 100 µM
[58]
  TGI: > 100 µM
[32]
  TGI: > 100 µM
[33]
  TGI: > 100 µM
[34]
  TGI: > 100 µM
[35]
  TGI: > 100 µM
[36]
  TGI: > 100 µM
[37]
  TGI: > 100 µM
[38]
  TGI: > 100 µM
[39]
  TGI: > 100 µM
[40]
  TGI: > 100 µM
[59]
  TGI: > 100 µM
[41]
  TGI: > 100 µM
[42]
  TGI: > 100 µM
[43]
  TGI: > 100 µM
[44]
  TGI: > 100 µM
[45]
  TGI: > 100 µM
[46]
  TGI: > 100 µM
[47]
  TGI: > 100 µM
[48]
  TGI: > 100 µM
[49]
  TGI: > 100 µM
[50]
  TGI: > 100 µM
[51]
  TGI: > 100 µM
[52]
  TGI: > 100 µM
[53]
  TGI: > 100 µM
